Laboratory results published in PubChem BioAssay AID1963985 (Molecular Pharmacology Branch, DTP, NCI, 2024).

Test system: 252836-082-R-J2-PDC tumor spheroids, viability
Test: Anticancer human tumor 252836-082-R-J2-PDC patient-derived head and neck squamous cell carcinoma cell line growth inhibition [PI3K]
Settings: spheroids with HUVEC and MSC; for IC50: curve of first compound; for viability, T/C: stronger effect = lower value
Summary of the method: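 Combination activity was assessed by viability in multicellular tumor spheroids carrying HUVEC and MSC components. Agents were tested with PI3K inhibitors from a Cmax-based top dose (or 10 microM) downward in half-log increments.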

[1] = second compound 0.00316 µM, first compound 0.0316 µM
[2] = second compound 0.00316 µM, first compound 0.1 µM
[3] = second compound 0.00316 µM, first compound 0.316 µM
[4] = second compound 0.00316 µM, first compound 1 µM
[5] = second compound 0.00316 µM, first compound 3.16 µM
[6] = second compound 0.00316 µM, first compound 10 µM
[7] = second compound 0.01 µM, first compound 0.0316 µM
[8] = second compound 0.01 µM, first compound 0.1 µM
[9] = second compound 0.01 µM, first compound 0.316 µM
[10] = second compound 0.01 µM, first compound 1 µM
[11] = second compound 0.01 µM, first compound 3.16 µM
[12] = second compound 0.01 µM, first compound 10 µM
[13] = second compound 0.0316 µM, first compound 0.0316 µM
[14] = second compound 0.0316 µM, first compound 0.1 µM
[15] = second compound 0.0316 µM, first compound 0.316 µM
[16] = second compound 0.0316 µM, first compound 1 µM
[17] = second compound 0.0316 µM, first compound 3.16 µM
[18] = second compound 0.0316 µM, first compound 10 µM
[19] = second compound 0.1 µM, first compound 0.0316 µM
[20] = second compound 0.1 µM, first compound 0.1 µM
[21] = second compound 0.1 µM, first compound 0.316 µM
[22] = second compound 0.1 µM, first compound 1 µM
[23] = second compound 0.1 µM, first compound 3.16 µM
[24] = second compound 0.1 µM, first compound 10 µM
[25] = second compound 0.316 µM, first compound 0.0316 µM
[26] = second compound 0.316 µM, first compound 0.1 µM
[27] = second compound 0.316 µM, first compound 0.316 µM
[28] = second compound 0.316 µM, first compound 1 µM
[29] = second compound 0.316 µM, first compound 3.16 µM
[30] = second compound 0.316 µM, first compound 10 µM
[31] = second compound 1 µM, first compound 0.0316 µM
[32] = second compound 1 µM, first compound 0.1 µM
[33] = second compound 1 µM, first compound 0.316 µM
[34] = second compound 1 µM, first compound 1 µM
[35] = second compound 1 µM, first compound 3.16 µM
[36] = second compound 1 µM, first compound 10 µM
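Also: spheroids exposed to agents for seven days before readout.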
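For viability, T/C in this document: percent of vehicle DMSO control viability so 100% = untreated growth.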

C#Cc1c(F)ccc2cc(O)cc(-c3ncc4c(N5CC6CCC(C5)N6)nc(OCC56CCCN5CC(F)C6)nc4c3F)c12 (centres undefined) + COc1c(OCCCN2CCOCC2)ccc2c3n(c(=NC(=O)c4cnc(N)nc4)nc12)CCN3
IC50 (second compound 0.00316 µM): > 10000 nM
IC50 (second compound 0.01 µM): > 10000 nM
IC50 (second compound 0.0316 µM): 3800 nM
IC50 (second compound 0.1 µM): < 31.6 nM
IC50 (second compound 0.316 µM): < 31.6 nM
IC50 (second compound 1 µM): < 31.6 nM
viability, T/C [1]: 75.2%
viability, T/C [2]: 79.9%
viability, T/C [3]: 105%
viability, T/C [4]: 76.8%
viability, T/C [5]: 72.5%
viability, T/C [6]: 67%
viability, T/C [7]: 76.5%
viability, T/C [8]: 76.8%
viability, T/C [9]: 72.2%
viability, T/C [10]: 70%
viability, T/C [11]: 60.2%
viability, T/C [12]: 53.2%
viability, T/C [13]: 53.5%
viability, T/C [14]: 62%
viability, T/C [15]: 53.7%
viability, T/C [16]: 57.2%
viability, T/C [17]: 52.7%
viability, T/C [18]: 34.9%
viability, T/C [19]: 40.4%
viability, T/C [20]: 37.9%
viability, T/C [21]: 36.5%
viability, T/C [22]: 32.8%
viability, T/C [23]: 37.6%
viability, T/C [24]: 18.4%
viability, T/C [25]: 16.9%
viability, T/C [26]: 15.7%
viability, T/C [27]: 13.2%
viability, T/C [28]: 15.3%
viability, T/C [29]: 12.9%
viability, T/C [30]: 4.25%
viability, T/C [31]: 4.39%
viability, T/C [32]: 4.93%
viability, T/C [33]: 4.55%
viability, T/C [34]: 4.71%
viability, T/C [35]: 2.91%
viability, T/C [36]: 0.25%

CC1(C)CCC(Nc2ncc(C(F)(F)F)c(-c3c[nH]c4c(P(C)(C)=O)c(C#N)ccc34)n2)CN1 (centres undefined) + COc1c(OCCCN2CCOCC2)ccc2c3n(c(=NC(=O)c4cnc(N)nc4)nc12)CCN3
IC50 (second compound 0.00316 µM): < 31.6 nM
IC50 (second compound 0.01 µM): < 31.6 nM
IC50 (second compound 0.0316 µM): < 31.6 nM
IC50 (second compound 0.1 µM): < 31.6 nM
IC50 (second compound 0.316 µM): < 31.6 nM
IC50 (second compound 1 µM): < 31.6 nM
viability, T/C [1]: 30%
viability, T/C [2]: 25.4%
viability, T/C [3]: 25.2%
viability, T/C [4]: 28.7%
viability, T/C [5]: 34.5%
viability, T/C [6]: 4.59%
viability, T/C [7]: 24.9%
viability, T/C [8]: 24.2%
viability, T/C [9]: 25.5%
viability, T/C [10]: 22.8%
viability, T/C [11]: 26.4%
viability, T/C [12]: 3.95%
viability, T/C [13]: 22%
viability, T/C [14]: 22.4%
viability, T/C [15]: 22.7%
viability, T/C [16]: 19.3%
viability, T/C [17]: 22.3%
viability, T/C [18]: 2.09%
viability, T/C [19]: 15.1%
viability, T/C [20]: 15.4%
viability, T/C [21]: 17.4%
viability, T/C [22]: 14.4%
viability, T/C [23]: 18.4%
viability, T/C [24]: 1.25%
viability, T/C [25]: 8.82%
viability, T/C [26]: 8.24%
viability, T/C [27]: 8.82%
viability, T/C [28]: 8.38%
viability, T/C [29]: 8.08%
viability, T/C [30]: 0.63%
viability, T/C [31]: 2.41%
viability, T/C [32]: 2.58%
viability, T/C [33]: 2.51%
viability, T/C [34]: 3.28%
viability, T/C [35]: 2.74%
viability, T/C [36]: 0.56%
